Laboratory results published in patent US10131652B2, “Pyrimidinyloxy benzene derivatives as herbicides” (E. I. DU PONT DE NEMOURS AND COMPANY, priority 2014, dated 2018).
Read-outs that look alike come from different tables or passages of the source.

Columns and labels:
Test in all cases: Test E pre-/postemergence plant response
Assay type in all cases: in vivo
[1] = test system: chickweed (common chickweed, Stellaria media); conditions: scale 0 to 100, read-out: Plant response rating, Chickweed; for pest or weed control at 16 g/ha: 16 g ai/ha; for pest or weed control at 31 g/ha: 31 g ai/ha; for pest or weed control at 62 g/ha: 62 g ai/ha; for pest or weed control at 125 g/ha: 125 g ai/ha
Method in brief: (§1)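 Visual scores on a 0–100 scale (100 = complete control) were assigned against untreated controls 7–21 days after treatment in a controlled environment. Compounds, formulated with solvent plus surfactant, were applied to pre-emergence silt-loam sowings or to 1- to 4-leaf plants (2–18 cm) in potting medium.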

[2] = test system: field violet (Viola arvensis); conditions: scale 0 to 100, read-out: Plant response rating, Field Violet; for pest or weed control at 16 g/ha: 16 g ai/ha; for pest or weed control at 31 g/ha: 31 g ai/ha; for pest or weed control at 62 g/ha: 62 g ai/ha; for pest or weed control at 125 g/ha: 125 g ai/ha
Method in brief: as §1

[3] = test system: galium (catchweed bedstraw, Galium aparine); conditions: scale 0 to 100, read-out: Plant response rating, Galium; for pest or weed control at 16 g/ha: 16 g ai/ha; for pest or weed control at 31 g/ha: 31 g ai/ha; for pest or weed control at 62 g/ha: 62 g ai/ha; for pest or weed control at 125 g/ha: 125 g ai/ha
Method in brief: as §1

[4] = test system: green foxtail (Setaria viridis); conditions: scale 0 to 100, read-out: Plant response rating, Foxtail, Green; for pest or weed control at 16 g/ha: 16 g ai/ha; for pest or weed control at 31 g/ha: 31 g ai/ha; for pest or weed control at 62 g/ha: 62 g ai/ha; for pest or weed control at 125 g/ha: 125 g ai/ha
Method in brief: as §1

| Compound | pest or weed control at 16 g/ha ([1]; post-emergence, Postemergence) | pest or weed control at 31 g/ha ([1]; post-emergence, Postemergence) | pest or weed control at 62 g/ha ([1]; post-emergence, Postemergence) | pest or weed control at 125 g/ha ([1]; post-emergence, Postemergence) | pest or weed control at 16 g/ha ([1]; pre-emergence, Preemergence) | pest or weed control at 31 g/ha ([1]; pre-emergence, Preemergence) | pest or weed control at 62 g/ha ([1]; pre-emergence, Preemergence) | pest or weed control at 125 g/ha ([1]; pre-emergence, Preemergence) | pest or weed control at 16 g/ha ([2]; post-emergence, Postemergence) | pest or weed control at 31 g/ha ([2]; post-emergence, Postemergence) | pest or weed control at 62 g/ha ([2]; post-emergence, Postemergence) | pest or weed control at 125 g/ha ([2]; post-emergence, Postemergence) | pest or weed control at 31 g/ha ([2]; pre-emergence, Preemergence) | pest or weed control at 125 g/ha ([2]; pre-emergence, Preemergence) | pest or weed control at 16 g/ha ([3]; post-emergence, Postemergence) | pest or weed control at 31 g/ha ([3]; post-emergence, Postemergence) | pest or weed control at 62 g/ha ([3]; post-emergence, Postemergence) | pest or weed control at 125 g/ha ([3]; post-emergence, Postemergence) | pest or weed control at 16 g/ha ([3]; pre-emergence, Preemergence) | pest or weed control at 31 g/ha ([3]; pre-emergence, Preemergence) | also measured |
| --- | --- | --- | --- | --- | --- | --- | --- | --- | --- | --- | --- | --- | --- | --- | --- | --- | --- | --- | --- | --- | --- |
| Fc1cccc(Oc2ncc(Cl)cn2)c1-c1cc(C(F)(F)F)on1 [Compound 168, 5-chloro-2-[2-[5-(trifluoromethyl)-3-isoxazolyl]-3-fluorophenoxy]pyrimidine] | 50% | 45% | 70% | 90% | 100% | 80% | 100% | 100% | 75% | 75% | 90% | 95% | 100% | 100% | 75% | 75% | 80% | 85% | 60% | 60% | pest or weed control at 16 g/ha ([2]; pre-emergence, Preemergence): 85%; pest or weed control at 62 g/ha ([2]; pre-emergence, Preemergence): 100%; pest or weed control at 62 g/ha ([3]; pre-emergence, Preemergence): 100%; pest or weed control at 125 g/ha ([3]; pre-emergence, Preemergence): 100%; pest or weed control at 16 g/ha ([4]; post-emergence, Postemergence): 20%; pest or weed control at 31 g/ha ([4]; post-emergence, Postemergence): 60%; pest or weed control at 62 g/ha ([4]; post-emergence, Postemergence): 60%; pest or weed control at 125 g/ha ([4]; post-emergence, Postemergence): 75%; pest or weed control at 16 g/ha ([4]; pre-emergence, Preemergence): 10%; pest or weed control at 31 g/ha ([4]; pre-emergence, Preemergence): 100%; pest or weed control at 62 g/ha ([4]; pre-emergence, Preemergence): 100%; pest or weed control at 125 g/ha ([4]; pre-emergence, Preemergence): 100% |
| FC(F)(F)c1cc(-c2ccccc2Oc2ncc(Cl)cn2)no1 [Compound 200, 5-chloro-2-[2-[5-(trifluoromethyl)-3-isoxazolyl]phenoxy]pyrimidine] | 65% | 75% | 100% | 100% | 70% | 90% | 100% | 100% | 70% | 80% | 75% | 95% | 50% | 100% | 70% | 75% | 75% | 90% | 15% | 25% | pest or weed control at 62 g/ha ([3]; pre-emergence, Preemergence): 55%; pest or weed control at 125 g/ha ([3]; pre-emergence, Preemergence): 100%; pest or weed control at 16 g/ha ([4]; post-emergence, Postemergence): 25%; pest or weed control at 31 g/ha ([4]; post-emergence, Postemergence): 35%; pest or weed control at 62 g/ha ([4]; post-emergence, Postemergence): 45%; pest or weed control at 125 g/ha ([4]; post-emergence, Postemergence): 55%; pest or weed control at 31 g/ha ([4]; pre-emergence, Preemergence): 25%; pest or weed control at 62 g/ha ([4]; pre-emergence, Preemergence): 100%; pest or weed control at 125 g/ha ([4]; pre-emergence, Preemergence): 100% |
